Assay results as given in patent publication US6355815B1, “Method of producing hydrogen peroxide and reaction promoters therefor” (Degussa AG, priority 1998, dated 2002).

How the values were obtained:
[1] = Oxidation stability of the quinone (oxygen, radical initiator, 150° C.); format: physicochemical; details: 0.04 mole quinone in 100 ml 1,2-dichlorobenzene, 10 mg azo-bis-isobutyronitrile, excess oxygen, after 24 h
Procedure: After the addition of 10 mg azo-bis-isobutyronitrile as radical initiator the mixture was agitated under excess of oxygen at 150° C. with a gassing agitator. After 24 h the quinone content was determined by chromatography.

[2] = Maximum H2O2 capacity in continuous cyclic anthraquinone process test system; details: compared with EAQ
Procedure: A working solution consisting of 75% by volume aromatic benzine (C9/C10-alkyl aromatic mixture), 25% by volume tris (2-ethylhexylphosphate), 0.11 mol/l 2-ethylanthraquinone, 0.29 mol/l 2-ethyltetrahydroanthraquinone, 0.13 mol/l 2-isohexylanthraquinone and 0.12 mol/l 2-isohexyltetrahydroanthraquinone was tested in a test system for the cyclic process of the anthraquinone method for producing hydrogen peroxide, consisting of the method steps of hydrogenation, oxidation, and extraction as well as of drying, regeneration and purification concerning the maximum H2O2 production capacity obtainable in continuous operation (g H2O2 produced per liter working solution). […]
The maximum H2O2 capacity of a working solution consisting of 75 by volume aromatic benzine (C9/C10-alkyl aromatic mixture), 25% by volume tris (2-ethylhexyl) phosphate, 0.12 mol/l 2-ethylanthraquinone, 0.28 mol/l 2-ethyltetrahydroanthraquinone, 0.13 mol/l 2-amylanthraquinone and 0.12 mol/l 2-amyltetrahydroanthraquinone was determined analogously to example 6. […]
The maximum H2O2 capacity of a working solution whose solvent system was based essentially on a C9/C10-aromatic benzine and tetrabutylurea (volumetric ratio AB:TBH approximately 3:1) was determined analogously to example 6 at a hydrogenation temperature of 60° C. […]

| Structure (SMILES) | residual quinone content [1] [%] | oxidative degradation under the conditions of the cyclic anthraquinone process [2] |
| --- | --- | --- |
| CCc1ccc2c(c1)C(=O)c1ccccc1C2=O [EAQ, 2-ethyl anthraquinone, reference compound] | 90 | – |
| CC(C)=CCCc1ccc2c(c1)C(=O)c1ccccc1C2=O [IHEAQ, 2-(4-methyl-3-pentenyl) anthraquinone] | 41 | not degraded oxidatively more than EAQ |
